In ChEMBL document CHEMBL1201862, “PubChem BioAssay data set” (2004):
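Step 1: Grow cells in 96-well plates. Step 2: Expose to compound for 48 hours at 5 concentrations. Step 3: Interpolate endpoints linearly; if unreached, use highest concentration. The concentration for 50% growth inhibition is given as GI50.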 Active and inactive are the calls of the source. No stated cut-off is given here; in the data, active = GI50 up to about 1.1 µM and inactive = higher.

What was measured:
Assay in all cases: NCI anticancer screen, dose series, 48 h
[1] = test system: NCI-H226
[2] = test system: Hs-578T
[3] = test system: HT-29
[4] = test system: RXF 393
[5] = test system: MDA-N
[6] = test system: UACC-62
[7] = test system: MDA-MB-435
[8] = test system: SN12C
[9] = test system: 786-0
[10] = test system: SK-MEL-5
[11] = test system: NCI-H460
[12] = test system: NCI-H23
[13] = test system: EKVX
[14] = test system: HCC 2998
[15] = test system: KM12
[16] = test system: OVCAR-3
[17] = test system: CAKI-1
[18] = test system: K562
[19] = test system: OVCAR-5
[20] = test system: Malme-3M

Structure (SMILES)	GI50 [1]	GI50 [2]	GI50 [3]	GI50 [4]	GI50 [5]	GI50 [6]	GI50 [7]	GI50 [8]	GI50 [9]	GI50 [10]	GI50 [11]	GI50 [12]	GI50 [13]	GI50 [14]	GI50 [15]	GI50 [16]	GI50 [17]	GI50 [18]	GI50 [19]	GI50 [20]
COc1c2c(c(OC)c3c1c(=O)c1ccccc1n3C)OCO2	> 50.4 µM (inactive)	4.79 µM (inactive)	17.5 µM (inactive)	6.07 µM (inactive)	2.08 µM (inactive)	9.06 µM (inactive)	2.28 µM (inactive)	33.5 µM (inactive)	29.2 µM (inactive)	3.14 µM (inactive)	8.49 µM (inactive)	10.6 µM (inactive)	35.4 µM (inactive)	5.2 µM (inactive)	3.25 µM (inactive)	5.51 µM (inactive)	37.4 µM (inactive)	0.703 µM (active)	> 72.3 µM (inactive)	
O=C1Nc2ccccc2/C1=C\c1c(-c2ccccc2)nc2n1CCS2		23.4 µM (inactive)	19.5 µM (inactive)	16.7 µM (inactive)	13.1 µM (inactive)	13 µM (inactive)	8.93 µM (inactive)	22.1 µM (inactive)	19.6 µM (inactive)	16.5 µM (inactive)	17.3 µM (inactive)	22.9 µM (inactive)	17.7 µM (inactive)	16.4 µM (inactive)	16.8 µM (inactive)	15.6 µM (inactive)	21.3 µM (inactive)	19.5 µM (inactive)	17.5 µM (inactive)	26.9 µM (inactive)
C=C1CC(Cn2ccc(=O)[nH]c2=O)(c2ccc(OC)cc2)OC1=O (centres undefined)	16.3 µM (inactive)	18.1 µM (inactive)	13.2 µM (inactive)		12.7 µM (inactive)	14.3 µM (inactive)	15.8 µM (inactive)	13.8 µM (inactive)	11.7 µM (inactive)	13.9 µM (inactive)	40.6 µM (inactive)	11.2 µM (inactive)	19.5 µM (inactive)	13 µM (inactive)	18.8 µM (inactive)	19.3 µM (inactive)	6.34 µM (inactive)	3.2 µM (inactive)	17.5 µM (inactive)	10.1 µM (inactive)
CCN(CC)c1cc2c3c(c1)CCCN3CCC2	> 10 µM (inactive)	> 10 µM (inactive)	> 10 µM (inactive)	> 10 µM (inactive)	> 10 µM (inactive)	> 10 µM (inactive)	> 10 µM (inactive)	> 10 µM (inactive)	> 10 µM (inactive)	> 10 µM (inactive)	> 10 µM (inactive)	> 10 µM (inactive)	> 10 µM (inactive)	> 10 µM (inactive)	> 10 µM (inactive)	> 10 µM (inactive)	> 10 µM (inactive)	> 10 µM (inactive)		> 10 µM (inactive)
CC(C)=CCNc1ncnc2c1ncn2CCC(=O)OC(C)(C)C	> 100 µM (inactive)	12.4 µM (inactive)	> 100 µM (inactive)	36.1 µM (inactive)	> 100 µM (inactive)	38.3 µM (inactive)	> 100 µM (inactive)	> 100 µM (inactive)	> 100 µM (inactive)	21.4 µM (inactive)	> 100 µM (inactive)	> 100 µM (inactive)		> 100 µM (inactive)	> 100 µM (inactive)	> 100 µM (inactive)		18.4 µM (inactive)	> 100 µM (inactive)	> 100 µM (inactive)
O=C1c2ccccc2-c2cc3ccccc3c(=O)n21		> 100 µM (inactive)	> 100 µM (inactive)		> 100 µM (inactive)	> 100 µM (inactive)	> 100 µM (inactive)	> 100 µM (inactive)	68.5 µM (inactive)	> 100 µM (inactive)	> 100 µM (inactive)	> 100 µM (inactive)	> 100 µM (inactive)	> 100 µM (inactive)	> 100 µM (inactive)	> 100 µM (inactive)		> 100 µM (inactive)	> 100 µM (inactive)	
CC[C@]1(Cc2ccc(OC)c(OC)c2)CN(S(=O)(=O)c2ccc(C)cc2)C[C@@H]1OC(C)=O	> 100 µM (inactive)	> 100 µM (inactive)	96.8 µM (inactive)	> 100 µM (inactive)	> 100 µM (inactive)	> 100 µM (inactive)	> 100 µM (inactive)		39.2 µM (inactive)	> 100 µM (inactive)	> 100 µM (inactive)	> 100 µM (inactive)	> 100 µM (inactive)	> 100 µM (inactive)	> 100 µM (inactive)	67.8 µM (inactive)	95.7 µM (inactive)	> 100 µM (inactive)	> 100 µM (inactive)	> 100 µM (inactive)
